# Measured values reported in patent publication US20050049197A1, “Induction of immune response against desired determinants” (Epimmune Inc., priority 1993, published 2005).
# Values joined by “and” are separate entries in the source; they are usually repeats but may differ in a detail not shown here. Equal entries are not always repeated. Non-standard residues stand in square brackets, D forms with d. Residues, ends and D or L forms follow the SMILES beside them. Cha = N[C@@H](CC1CCCCC1)C(=O)O
# What was measured:
# DR2w2b = system: DR2w2b; design: species or system human; settings: read-out: Binding Activity DR2wB2, IC50
# DR3 = system: DR3; design: species or system human; settings: read-out: Binding Activity DR3, IC50
# DR5 = system: DR5; design: species or system human; settings: read-out: Binding Activity DR5, IC50
# DQ3.1 = system: DQ3.1; design: species or system human; settings: read-out: Binding Activity DQ3.1, IC50
# [1] = system: PBMC from normal individuals; assay: In vitro T cell proliferative responses of human PBMC ([3H]thymidine incorporation); format: cell-based; settings: for AVERAGE S.I. / AVERAGE ΔMAX CPM: average of 5 donors; for X144 (Δmax cpm) / X144 S.I.: donor X144; for X162 (Δmax cpm) / X162 S.I.: donor X162; for X349 (Δmax cpm) / X349 S.I.: donor X349; for X372 (Δmax cpm) / X372 S.I.: donor X372; for X460 (Δmax cpm) / X460 S.I.: donor X460
# DRw53 = DRw53 (Homo sapiens, UniProt P01903+P13762); assay: biochemical; format: binding
# DRw53, sequence (P01903 26-254): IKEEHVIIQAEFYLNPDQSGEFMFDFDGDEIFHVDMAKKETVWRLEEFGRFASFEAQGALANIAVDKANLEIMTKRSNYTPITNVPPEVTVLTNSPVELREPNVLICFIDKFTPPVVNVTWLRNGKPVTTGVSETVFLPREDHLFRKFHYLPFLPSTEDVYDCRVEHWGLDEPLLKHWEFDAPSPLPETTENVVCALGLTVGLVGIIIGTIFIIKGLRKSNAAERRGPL
# DRw53, sequence (P13762 30-266): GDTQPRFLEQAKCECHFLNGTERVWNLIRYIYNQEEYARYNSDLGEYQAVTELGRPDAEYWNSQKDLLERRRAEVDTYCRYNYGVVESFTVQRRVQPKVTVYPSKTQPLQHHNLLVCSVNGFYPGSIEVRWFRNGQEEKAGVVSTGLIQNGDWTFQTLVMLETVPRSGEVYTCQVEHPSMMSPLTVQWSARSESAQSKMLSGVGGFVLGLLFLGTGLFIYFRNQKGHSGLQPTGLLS
# P. yoelii sporozoites = assay: Inhibition of liver stage development assay (ILSDA), mouse hepatocytes infected with P. yoelii sporozoites; format: cell-based; settings: sera of immunized mice; for % Inhibition / Mean schizonts/well + S.D.: mouse hepatocytes
# Protocol: (§1) In certain experiments, peptides were emulsified in complete Freund's adjuvant (CFA) and injected subcutaneously (S.C.) at the base of the tail in 100 μl volume containing 100 μg of peptide. Mice were boosted with 100 μg of peptide emulsified in 100 μl of incomplete Freund's adjuvant (IFA) 1 month later. Mice were bled just prior to boosting, and 2 weeks after boosting.
# All cell culture reagents were obtained from quality Biological, Gaithersburg, Md. The slides were incubated overnight at 37° C. in a 5% CO2/95% air environment. The medium was changed the following day and fresh medium containing dexamethasone (7×10^−5) was added to the cultures.
# (§2) The 17XNL (nonlethal) strain of P. yoelii or the NF54 strain of P. falciparum were used for murine and human hepatocyte in vitro infections, respectively.
# (§3) Briefly, 25 μl of the serum samples, diluted to 2× their final concentration, were added to triplicate chamber-slide wells. P. yoeilli or P. falciparum sporozoites, 75,000/well, were then added in a volume of 25 μl to the mouse or human hepatocyte cultures respectively. The cultures were incubated for 3 h, then washed extensively with fresh medium to remove unattached sporozoites. The infected hepatocytes were then incubated for a further 2 (P. yoelii) or 5 days (P. falciparum) with the medium being changed each day of culture. The slides were fixed and immunostained with either a P. yoelii- or P. falciparum-specific monoclonal antibody. Schizonts were counted from the triplicate cultures and the percent inhibition determined as follows: control−test/control×100. Sera from mice injected with CFA (first dose) and IFA (second and third doses) served as the negative controls.
# [2] = system: P. falciparum sporozoites; assay: Inhibition of liver stage development assay (ILSDA), human hepatocytes infected with P. falciparum sporozoites; format: cell-based; settings: sera of C57BL/6 mice immunized with peptide in CFA/IFA, final dilution 1:100
# Protocol: as §1
# Human hepatocytes were isolated from nontransplantable liver tissue donated for research. […] The hepatocytes were allowed to attach and spread overnight with the media being changed the following day.
# as §2, §3
Compound,IC50 (DR2w2b),IC50 (DQ3.1),AVERAGE S.I. ([1]; 2nd Stimulation),AVERAGE ΔMAX CPM ([1]; 2nd Stimulation),X144 (Δmax cpm) ([1]; 2nd Stimulation),X144 S.I. ([1]; 2nd Stimulation),X162 (Δmax cpm) ([1]; 2nd Stimulation),X162 S.I. ([1]; 2nd Stimulation),X349 (Δmax cpm) ([1]; 2nd Stimulation),X349 S.I. ([1]; 2nd Stimulation),X372 (Δmax cpm) ([1]; 2nd Stimulation),X372 S.I. ([1]; 2nd Stimulation),X460 (Δmax cpm) ([1]; 2nd Stimulation),X460 S.I. ([1]; 2nd Stimulation),AVERAGE S.I. ([1]; 3rd Stimulation),AVERAGE ΔMAX CPM ([1]; 3rd Stimulation),X144 (Δmax cpm) ([1]; 3rd Stimulation),X144 S.I. ([1]; 3rd Stimulation),X162 (Δmax cpm) ([1]; 3rd Stimulation),X162 S.I. ([1]; 3rd Stimulation),also measured
CC(C)C[C@H](NC(=O)[C@@H](NC(=O)[C@H](CC(N)=O)NC(=O)[C@H](C)NC(=O)[C@H](C)NC(=O)[C@@H](NC(=O)[C@H](CC1CCCCC1)NC(=O)[C@H](CCCCN)NC(=O)[C@@H](C)N)C(C)C)[C@@H](C)O)C(=O)N[C@@H](CCCCN)C(=O)N[C@@H](C)C(=O)N[C@@H](C)C(=O)N[C@H](C)C(N)=O [965.08],0.0038 µM,> 10 µM,1.7,11208 cpm,8440 cpm,1.3,9234 cpm,2.6,9065 cpm,1.8,23017 cpm,1.6,6286 cpm,1.4,2,12070 cpm,3559 cpm,1.4,14622 cpm,2.3,IC50 (DR3): 0.25 µM; IC50 (DR5): 0.008 µM; X349 (Δmax cpm) ([1]; 3rd Stimulation): 31639 cpm; X349 S.I. ([1]; 3rd Stimulation): 2.8; X372 (Δmax cpm) ([1]; 3rd Stimulation): 8710 cpm; X372 S.I. ([1]; 3rd Stimulation): 1.9; X460 (Δmax cpm) ([1]; 3rd Stimulation): 1820 cpm; X460 S.I. ([1]; 3rd Stimulation): 1.6
CC(C)C[C@H](NC(=O)[C@@H](NC(=O)[C@H](Cc1ccc(O)cc1)NC(=O)[C@H](C)NC(=O)[C@H](C)NC(=O)[C@@H](NC(=O)[C@H](CC1CCCCC1)NC(=O)[C@H](CCCCN)NC(=O)[C@@H](C)N)C(C)C)[C@@H](C)O)C(=O)N[C@@H](CCCCN)C(=O)N[C@@H](C)C(=O)N[C@@H](C)C(=O)N[C@H](C)C(N)=O [965.09],0.0074 µM,> 10 µM,1.9,12059 cpm,13693 cpm,1.8,10710 cpm,1.1,18079 cpm,3.8,17813 cpm,1.6,0 cpm,1,4.1,22599 cpm,14087 cpm,2.6,35635 cpm,5.2,IC50 (DR3): 0.25 µM; IC50 (DR5): 0.0054 µM; IC50 (DRw53): 0.0864 µM; X349 (Δmax cpm) ([1]; 3rd Stimulation): 31811 cpm; X349 S.I. ([1]; 3rd Stimulation): 5.5; X372 (Δmax cpm) ([1]; 3rd Stimulation): 29159 cpm; X372 S.I. ([1]; 3rd Stimulation): 4.4; X460 (Δmax cpm) ([1]; 3rd Stimulation): 2301 cpm; X460 S.I. ([1]; 3rd Stimulation): 2.9
CC(C)C[C@H](NC(=O)[C@@H](NC(=O)[C@H](Cc1c[nH]cn1)NC(=O)[C@H](C)NC(=O)[C@H](C)NC(=O)[C@@H](NC(=O)[C@H](CC1CCCCC1)NC(=O)[C@H](CCCCN)NC(=O)[C@@H](C)N)C(C)C)[C@@H](C)O)C(=O)N[C@@H](CCCCN)C(=O)N[C@@H](C)C(=O)N[C@@H](C)C(=O)N[C@H](C)C(N)=O [965.15],0.0054 µM,> 10 µM,1.8,7920 cpm,7179 cpm,1.4,8461 cpm,3.4,10848 cpm,1.8,10011 cpm,1.3,3100 cpm,1.2,2.5,15462 cpm,13055 cpm,2.4,12309 cpm,1.6,IC50 (DR3): 1.39 µM; IC50 (DR5): 0.0299 µM; IC50 (DRw53): 0.0792 µM; X349 (Δmax cpm) ([1]; 3rd Stimulation): 20653 cpm; X349 S.I. ([1]; 3rd Stimulation): 2.4; X372 (Δmax cpm) ([1]; 3rd Stimulation): 30810 cpm; X372 S.I. ([1]; 3rd Stimulation): 4.7; X460 (Δmax cpm) ([1]; 3rd Stimulation): 486 cpm; X460 S.I. ([1]; 3rd Stimulation): 1.2
CC(C)C[C@H](NC(=O)[C@@H](NC(=O)[C@H](C)NC(=O)[C@H](C)NC(=O)[C@H](C)NC(=O)[C@@H](NC(=O)[C@H](CC1CCCCC1)NC(=O)[C@H](CCCCN)NC(=O)[C@@H](C)N)C(C)C)[C@@H](C)O)C(=O)N[C@@H](CCCCN)C(=O)N[C@@H](C)C(=O)N[C@@H](C)C(=O)N[C@H](C)C(N)=O [965.16],0.0061 µM,> 10 µM,1.3,1843 cpm,4388 cpm,1.2,4090 cpm,2.1,0 cpm,1,736 cpm,1,0 cpm,1,1.5,5955 cpm,5220 cpm,1.5,4762 cpm,1.9,IC50 (DR5): 0.0167 µM; X349 (Δmax cpm) ([1]; 3rd Stimulation): 9316 cpm; X349 S.I. ([1]; 3rd Stimulation): 1.6; X372 (Δmax cpm) ([1]; 3rd Stimulation): 10439 cpm; X372 S.I. ([1]; 3rd Stimulation): 1.7; X460 (Δmax cpm) ([1]; 3rd Stimulation): 37 cpm; X460 S.I. ([1]; 3rd Stimulation): 1
CC(C)C[C@H](NC(=O)[C@@H](NC(=O)[C@H](Cc1c[nH]c2ccccc12)NC(=O)[C@H](C)NC(=O)[C@H](C)NC(=O)[C@@H](NC(=O)[C@H](CC1CCCCC1)NC(=O)[C@H](CCCCN)NC(=O)[C@H](C)N)C(C)C)[C@@H](C)O)C(=O)N[C@@H](CCCCN)C(=O)N[C@@H](C)C(=O)N[C@@H](C)C(=O)N[C@@H](C)C(N)=O [965.17],0.0059 µM,> 10 µM,2.4,12738 cpm,17391 cpm,1.7,6323 cpm,2,26512 cpm,5.6,8471 cpm,1.3,4994 cpm,1.3,3.5,25399 cpm,32665 cpm,4.1,28065 cpm,4.1,IC50 (DRw53): 0.17 µM; X349 (Δmax cpm) ([1]; 3rd Stimulation): 31983 cpm; X349 S.I. ([1]; 3rd Stimulation): 4; X372 (Δmax cpm) ([1]; 3rd Stimulation): 30661 cpm; X372 S.I. ([1]; 3rd Stimulation): 3.2; X460 (Δmax cpm) ([1]; 3rd Stimulation): 3619 cpm; X460 S.I. ([1]; 3rd Stimulation): 2.2
"CC(C)C[C@H](NC(=O)[C@@H](NC(=O)[C@H](Cc1c[nH]c2ccccc12)NC(=O)[C@H](C)NC(=O)[C@H](C)NC(=O)[C@@H](NC(=O)[C@H](CC1CCCCC1)NC(=O)[C@H](CCCCN)NC(=O)[C@@H](C)N)C(C)C)[C@@H](C)O)C(=O)N[C@@H](CCCCN)C(=O)N[C@@H](C)C(=O)N[C@H](C)C(=O)N[C@@H](CCC(N)=O)C(=O)NCC(=O)N1CCC[C@H]1C(=O)NCC(=O)N[C@@H](C)C(=O)N1CCC[C@H]1C(=O)N[C@@H](CCC(N)=O)C(=O)NCC(=O)N1CCC[C@H]1C(=O)NCC(=O)N[C@@H](C)C(=O)N1CCC[C@H]1C(=O)N[C@@H](CCC(N)=O)C(=O)NCC(=O)N1CCC[C@H]1C(=O)NCC(=O)N[C@@H](C)C(=O)N1CCC[C@H]1C(=O)N[C@@H](CCC(N)=O)C(=O)NCC(=O)N1CCC[C@H]1C(=O)NCC(=O)N[C@@H](C)C(=O)N1CCC[C@H]1C(=O)NCC(=O)NCC(=O)N[C@@H](CO)C(=O)O [PADRE ®-PyB, aKXVAAWTLKAa(QGPGAP)4GGS] (H-[dA]K[Cha]VAAWTLKA[dA]QGPGAPQGPGAPQGPGAPQGPGAPGGS-OH; N-terminus and C-terminus assumed)",,,,,,,,,,,,,,,,,,,,,inhibition of P. yoelii sporozoite invasion and development in murine hepatocytes (P. yoelii sporozoites; dilution not stated): approximately 90%
(NANP)4 [PfB],,,,,,,,,,,,,,,,,,,,,% Inhibition [2]: 80% and 79.7%; Mean schizonts/well ± S.D. [2]: 15.6 ± 8.7 schizonts/well; % Inhibition (P. yoelii sporozoites; dilution 1:100): 13.4%; Mean schizonts/well + S.D. (P. yoelii sporozoites; dilution 1:100): 71 ± 7 schizonts/well; % Inhibition (P. yoelii sporozoites; dilution 1:200): 6.2%; Mean schizonts/well + S.D. (P. yoelii sporozoites; dilution 1:200): 76 ± 7 schizonts/well
